Source: patent publication US11753411B2, “Substituted pyrazolo[1,5-a]pyrimidines as TYK2 pseudokinase ligands” (Ventyx Biosciences, Inc., priority 2019, dated 2023)

tested on: IFN-a/Jak1 Tyk2; assay: Co-stimulation assay in lysed whole blood: IFNa (JAK1/TYK2) stimulated STAT1 phosphorylation; assay type: cell-based; conditions: Homo sapiens, 20 min, 100 ng/mL IFNa (with 10 ng/mL GM-CSF), pSTAT by flow cytometry
Procedure: Example 12: Co-Stimulation Assay in Lysed Whole Blood; JAK2: GM-CSF Stimulated STAT5 Phosphorylation and JAK1/TYK2 Stimulated STAT1 Phosphorylation Assay
Human Blood Lysis Using Abcam's RBC Lysis Buffer
Dilute RBC lysis buffer to 1× in distilled water. Add 2 mL blood to 38 mL of 1×RBC-lysis buffer. Incubate for 15 mins at RT, in dark. Spin at 300 g, 5 mins, to collect the pellet. Re-lyse if necessary. Re-suspend pellet in 5 mL of cRPMI.
Compound and Cytokine Treatment
Aliquot 80 μL of lysed human blood in to wells of 96 deep-well plate. Add 10 μl of (10× conc.) of different concentrations of compounds to all wells except controls (unstained and unstimulated) and mix it with the help of 100 uL multichannel. Add 10 uL of RPMI media in controls. For dilution of compounds and dilution range please refer Appendix. Incubate on water bath or CO2 incubator for 1 hour at 37° C. Add 10 μl of (10× conc.) of cytokine mix (GM-CSF and IFNa) (final conc.10 ng/mL of GM-CSF and 100 ng/mL of IFNa) to each well except unstimulated and unstained controls and incubate further for 20 minutes on water bath at 37° C.
Add 900 μL of prewarmed 1× Fix/Lyse solution (Appendix) and mix it properly using 1000 μl multichannel, incubate further on water bath at 37° C. for 10 minutes (which includes time of addition). Centrifuge at 800×g for 5 minutes at 40° C.; remove 900 uL of supernatant and add 900 μL of 1×PBS. Centrifuge at 800×g for 5 minutes at 40° C., remove 900 μL of supernatant. Wash one more time with 900 μL of PBS (optional) and resuspend pellets in 100 uL of PBS.
Disrupt the pellet by gentle tapping and resuspend in 1000 μL of BD Phosflow Perm Buffer III and incubate plate on ice for 30 minutes. Centrifuge plate at 800×g for 5 minutes at 40° C. Wash two more times with 1000 μL of BD Pharmingen Stain Buffer.
Disrupt the pellet by gentle tapping. Resuspend pellets in 100 uL of Stain Buffer and add 5 μL of pSTAT5_AF488 Ab and 5 uL of pSTAT_PE in all wells except unstained control and mix properly using 200 μl multichannel, incubate overnight at […]. Add 900 μL of wash buffer and centrifuge at 1800 rpm for 3 minutes at 40° C. Wash one more time with 1000 μL of BD Pharmingen Stain Buffer. Finally resuspend the pellet in 300 uL of BD Pharmingen Stain Buffer. Transfer the cells to 96-well v-bottom plate and acquire the cells in Beckman Coulter CytExpert. Acquiring cells in Flow Cytometer: Keep the threshold value to 250 and cell concentration should not exceed 100-500 cells/μL. Acquire at least 5,000-10,000 cells.
RPMI 1640 Complete Medium: RPMI 1640 media+10% FBS.
Cytokine dilution: 1) GM-CSF Stock at 100 ug/mL. Prepare an intermediate dilution of 1 ug/mL by adding 2 uL of stock into 198 uL of cRPMI. Further dilute to 100 ng/mL by adding 100 uL of the intermediate stock to 900 uL of cRPMI. 2) IFNa Stock at 200 ug/mL. Dilute IFNa stock 1:200 by adding 5 uL of stock into the 1000 uL of 100 ng/mL GM-CSF working stock as above to give a combined working stock of 1000 ng/mL of IFNa and 100 ng/mL GM-CSF (10×). Keep it on ice until used.
Lyse/Fix buffer preparation: Dilute 5× Lyse/Fix buffer to 1× using MQ water and keep at 37° C. until used.
BD Phosflow perm buffer III: Keep on ice/fridge.

Row | Structure (SMILES) | IC50 [nM]
1 | CNc1cc(Nc2c(F)ccc3c2OCCO3)nc2c(NC(=O)N[C@@H]3C[C@@H]3F)cnn12 [Compound 175, 1-(5-((6-fluoro-2,3-dihydrobenzo[b][1,4]dioxin-5-yl)amino)-7-(methylamino)pyrazolo[1,5-a]pyrimidin-3-yl)-3-((1R,2S)-2-fluorocyclopropyl)urea] | ≥ 10000
2 | CNC(=O)Nc1cnn2c(NC)cc(Nc3ccccc3OC)nc12 [Compound 149, 1-(5-((2-methoxyphenyl)amino)-7-(methylamino)pyrazolo[1,5-a]pyrimidin-3-yl)-3-methylurea] | < 1000
3 | CNc1cc(Nc2cccc3c2OCCO3)nc2c(NC(=O)N(C)C)cnn12 [Compound 140, 3-(5-((2,3-dihydrobenzo[b][1,4]dioxin-5-yl)amino)-7-(methylamino)pyrazolo[1,5-a]pyrimidin-3-yl)-1,1-dimethylurea] | ≥ 10000
4 | CNC(=O)Nc1cnn2c(NC)cc(Nc3c(C)cccc3OC)nc12 [Compound 66, 1-(5-((2-methoxy-6-methylphenyl)amino)-7-(methylamino)pyrazolo[1,5-a]pyrimidin-3-yl)-3-methylurea] | 1000 to 10000
5 | CNc1cc(Nc2cc(C)ccc2OC)nc2c(NC(=O)NCC#N)cnn12 [Compound 129, 1-(cyanomethyl)-3-(5-((2-methoxy-5-methylphenyl)amino)-7-(methylamino)pyrazolo[1,5-a]pyrimidin-3-yl)urea] | < 1000
6 | CNc1cc(Nc2cccc3c2OCCO3)nc2c(NC(=O)NC3CCC3)cnn12 [Compound 93, 1-cyclobutyl-3-(5-((2,3-dihydrobenzo[b][1,4]dioxin-5-yl)amino)-7-(methylamino)pyrazolo[1,5-a]pyrimidin-3-yl)urea] | < 1000
7 | CNc1cc(Nc2cc(F)cc3c2OCCO3)nc2c(NC(=O)NCC(N)=O)cnn12 [Compound 118, 2-(3-(5-((7-fluoro-2,3-dihydrobenzo[b][1,4]dioxin-5-yl)amino)-7-(methylamino)pyrazolo[1,5-a]pyrimidin-3-yl)ureido)acetamide] | < 1000
8 | CNC(=O)Nc1cnn2c(NC)cc(Nc3cccc(Cl)c3OC)nc12 [Compound 63, 1-(5-((3-chloro-2-methoxyphenyl)amino)-7-(methylamino)pyrazolo[1,5-a]pyrimidin-3-yl)-3-methylurea] | 1000 to 10000
9 | CNc1cc(Nc2c(F)c(F)cc(F)c2F)nc2c(NC(=O)N[C@@H]3C[C@@H]3F)cnn12 [Compound 38, 1-((1R,2S)-2-fluorocyclopropyl)-3-(7-(methylamino)-5-((2,3,5,6-tetrafluorophenyl)amino)pyrazolo [1,5-a]pyrimidin-3-yl)urea] | 1000 to 10000
10 | CNc1cc(Nc2cccc3c2OCCO3)nc2c(NC(=O)NC3CC(=O)C3)cnn12 [Compound 36, 1-(5-((2,3-dihydrobenzo[b][1,4]dioxin-5-yl)amino)-7-(methylamino)pyrazolo[1,5-a]pyrimidin-3-yl)-3-(3-oxocyclobutyl)urea] | < 1000
11 | CNc1cc(Nc2cc(F)cc3c2OCCO3)nc2c(NC(=O)NC3CCC3C#N)cnn12 (stereo not shown) [Compound 46, 1-(2-cyanocyclobutyl)-3-(5-((7-fluoro-2,3-dihydrobenzo[b][1,4]dioxin-5-yl)amino)-7-(methylamino)pyrazolo[1,5-a]pyrimidin-3-yl)urea] | 1000 to 10000
12 | CNC(=O)Nc1cnn2c(NC)cc(Nc3cccc4c3OCCO4)nc12 [Compound 7, 1-(5-((2,3-dihydrobenzo[b][1,4]dioxin-5-yl)amino)-7-(methylamino)pyrazolo[1,5-a]pyrimidin-3-yl)-3-methylurea] | < 1000
13 | CCNC(=O)Nc1cnn2c(NC)cc(Nc3cccc4c3OCCO4)nc12 [Compound 147, 1-(5-((2,3-dihydrobenzo[b][1,4]dioxin-5-yl)amino)-7-(methylamino)pyrazolo[1,5-a]pyrimidin-3-yl)-3-ethylurea] | < 1000
14 | CNC(=O)Nc1cnn2c(NC)cc(-c3cn(C4CCOCC4)c4ncccc34)nc12 [Compound 80, 1-methyl-3-(7-(methylamino)-5-(1-(tetrahydro-2H-pyran-4-yl)-1H-pyrrolo[2,3-b]pyridin-3-yl)pyrazolo[1,5-a]pyrimidin-3-yl)urea] | < 1000
15 | CNc1cc(Nc2cc(F)cc3c2OCCO3)nc2c(NC(=O)NCC#N)cnn12 [Compound 114, 1-(cyanomethyl)-3-(5-((7-fluoro-2,3-dihydrobenzo[b][1,4]dioxin-5-yl)amino)-7-(methylamino)pyrazolo[1,5-a]pyrimidin-3-yl)urea] | < 1000
16 | CNc1cc(Nc2cccc3c2OCCO3)nc2c(NC(=O)NC3CC(C#N)C3)cnn12 (stereo not shown) [Compound 27, 1-(3-cyanocyclobutyl)-3-(5-((2,3-dihydrobenzo[b][1,4]dioxin-5-yl)amino)-7-(methylamino)pyrazolo[1,5-a]pyrimidin-3-yl)urea] | < 1000
17 | CNc1cc(Nc2cc(F)cc3c2OCCO3)nc2c(NC(=O)NC3CCC3)cnn12 [Compound 105, 1-cyclobutyl-3-(5-((7-fluoro-2,3-dihydrobenzo[b][1,4]dioxin-5-yl)amino)-7-(methylamino)pyrazolo[1,5-a]pyrimidin-3-yl)urea] | < 1000
18 | CNc1cc(Nc2cccc3c2OCCO3)nc2c(NC(=O)NCC(F)F)cnn12 [Compound 134, 1-(2,2-difluoroethyl)-3-(5-((2,3-dihydrobenzo[b][1,4]dioxin-5-yl)amino)-7-(methylamino)pyrazolo[1,5-a]pyrimidin-3-yl)urea] | 1000 to 10000
19 | C#C[C@H](C)NC(=O)Nc1cnn2c(NC)cc(Nc3cccc4c3OCCO4)nc12 [Compound 123, (S)-1-(but-3-yn-2-yl)-3-(5-((2,3-dihydrobenzo[b][1,4]dioxin-5-yl)amino)-7-(methylamino)pyrazolo[1,5-a]pyrimidin-3-yl)urea] | < 1000
20 | CNc1cc(Nc2cc(C#N)cc3c2OCCO3)nc2c(NC(=O)NC3CCC3)cnn12 [Compound 106, 1-(5-((7-cyano-2,3-dihydrobenzo[b][1,4]dioxin-5-yl)amino)-7-(methylamino)pyrazolo[1,5-a]pyrimidin-3-yl)-3-cyclobutylurea] | 1000 to 10000
21 | CNC(=O)Nc1cnn2c(NC)cc(Nc3ccccc3S(C)(=O)=O)nc12 [Compound 156, 1-methyl-3-(7-(methylamino)-5-((2-(methylsulfonyl)phenyl)amino)py-razolo[1,5-a]pyrimidin-3-yl)urea] | ≥ 10000
22 | CNC(=O)Nc1c(F)nn2c(NC)cc(Nc3cccc4c3OCCO4)nc12 [Compound 110, 1-(5-((2,3-dihydrobenzo[b][1,4]dioxin-5-yl)amino)-2-fluoro-7-(methylamino)pyrazolo[1,5-a]pyrimidin-3-yl)-3-methylurea] | ≥ 10000
23 | CNC(=O)Nc1cnn2c(NC)cc(NC3CCCC3)nc12 [Compound 155, 1-(5-(cyclopentylamino)-7-(methylamino)pyrazolo[1,5-a]pyrimidin-3-yl)-3-methylurea] | 1000 to 10000
24 | [2H]C([2H])([2H])Nc1cc(Nc2cccc3c2OCCO3)nc2c(NC(=O)N[C@@H]3C[C@@H]3F)cnn12 [Compound 40, 1-(5-((2,3-dihydrobenzo[b][1,4]dioxin-5-yl)amino)-7-((methyl-d3)amino)pyrazolo[1,5-a]pyrimidin-3-yl)-3-((1R,2S)-2-fluorocyclopropyl)urea] | < 1000

same assay, conditions: lysed human whole blood; 100 ng/mL IFNa (with 10 ng/mL GM-CSF), 20 minutes; pSTAT by flow cytometry

Row | Structure (SMILES) | IC50 [nM]
25 | CNc1cc(Nc2c(F)ccc3c2OCCO3)nc2c(NC(=O)NCC#N)cnn12 [Compound 174, 1-(cyanomethyl)-3-(5-((6-fluoro-2,3-dihydrobenzo[b][1,4]dioxin-5-yl)amino)-7-(methylamino)pyrazolo[1,5-a]pyrimidin-3-yl)urea] | ≥ 10000
